Reference: US8748415B2 (priority 2011, dated 2014)

The molecules below were run on recombinant NL4-3 virus (Renilla luciferase in nef, Gag P373S) (assay: HIV cell culture assay (luciferase activity in MT-2 cells infected with NLRluc recombinant virus)). Conditions: NL43, MT-2 cells infected 4-5 days with NLRluc recombinant virus, class symbol.
Type: cell-based
Method in brief: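 Activity was read as luciferase output (Dual Luciferase reagents premixed with lysis solution) after 4–5 days of infection in serially diluted inhibitor. Host cells were MT-2 in 10% FBS RPMI. The reporter virus came from transfected 293T cells and was titered on MT-2.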

Row | SMILES | EC50
1 | C=C(C)[C@@H]1CC[C@]2(CNC(=O)C(F)(F)C(=O)O)CC[C@]3(C)[C@H](CC[C@@H]4[C@@]5(C)CC=C(c6ccc(C(=O)O)cc6)C(C)(C)[C@@H]5CC[C@]43C)[C@@H]12 [Example 153, 4-((1R,3aS,5aR,5bR,7aR,11aS,11bR,13aR,13bR)-3a-((2-carboxy-2,2-difluoroacetamido)methyl)-5a,5b,8,8,11a-pentamethyl-1-(prop-1-en-2-yl)-2,3,3a,4,5,5a,5b,6,7,7a,8,11,11a,11b,12,13,13a,13b-octadecahydro-1H-cyclopenta[a]chrysen-9-yl)benzoic acid] | > 100 nM
2 | C=C(C)[C@@H]1CC[C@]2(CNC(=O)NCCN3CCCC3=O)CC[C@]3(C)[C@H](CC[C@@H]4[C@@]5(C)CC=C(c6ccc(C(=O)O)cc6)C(C)(C)[C@@H]5CC[C@]43C)[C@@H]12 [Example 154, 4-((1R,3aS,5aR,5bR,7aR,11aS,11bR,13aR,13bR)-5a,5b,8,8,11a-pentamethyl-3a-((3-(2-(2-oxopyrrolidin-1-yl)ethyl)ureido)methyl)-1-(prop-1-en-2-yl)-2,3,3a,4,5,5a,5b,6,7,7a,8,11,11a,11b,12,13,13a,13b-octadecahydro-1H-cyclopenta[a]chrysen-9-yl)benzoic acid] | < 100 nM
3 | C=C(C)[C@@H]1CC[C@]2(CNC(=O)NCCCN3CCCC3=O)CC[C@]3(C)[C@H](CC[C@@H]4[C@@]5(C)CC=C(c6ccc(C(=O)O)cc6)C(C)(C)[C@@H]5CC[C@]43C)[C@@H]12 [Example 155, 4-((1R,3aS,5aR,5bR,7aR,11aS,11bR,13aR,13bR)-5a,5b,8,8,11a-pentamethyl-3a-((3-(3-(2-oxopyrrolidin-1-yl)propyl)ureido)methyl)-1-(prop-1-en-2-yl)-2,3,3a,4,5,5a,5b,6,7,7a,8,11,11a,11b,12,13,13a,13b-octadecahydro-1H-cyclopenta[a]chrysen-9-yl)benzoic acid] | < 100 nM
4 | C=C(C)[C@@H]1CC[C@]2(CNC(=O)NCC(=O)OCC)CC[C@]3(C)[C@H](CC[C@@H]4[C@@]5(C)CC=C(c6ccc(C(=O)O)cc6)C(C)(C)[C@@H]5CC[C@]43C)[C@@H]12 [Example 156, 4-((1R,3aS,5aR,5bR,7aR,11aS,11bR,13aR,13bR)-3a-((3-(2-ethoxy-2-oxoethyl)ureido)methyl)-5a,5b,8,8,11a-pentamethyl-1-(prop-1-en-2-yl)-2,3,3a,4,5,5a,5b,6,7,7a,8,11,11a,11b,12,13,13a,13b-octadecahydro-1H-cyclopenta[a]chrysen-9-yl)benzoic acid] | < 100 nM
5 | C=C(C)[C@@H]1CC[C@]2(CNC(=O)NCC(=O)OC)CC[C@]3(C)[C@H](CC[C@@H]4[C@@]5(C)CC=C(c6ccc(C(=O)O)cc6)C(C)(C)[C@@H]5CC[C@]43C)[C@@H]12 [Example 158, 4-((1R,3aS,5aR,5bR,7aR,11aS,11bR,13aR,13bR)-3a-((3-(2-methoxy-2-oxoethyl)ureido)methyl)-5a,5b,8,8,11a-pentamethyl-1-(prop-1-en-2-yl)-2,3,3a,4,5,5a,5b,6,7,7a,8,11,11a,11b,12,13,13a,13b-octadecahydro-1H-cyclopenta[a]chrysen-9-yl)benzoic acid] | < 100 nM
6 | C=C(C)[C@@H]1CC[C@]2(CNC(=O)NCCN3CCS(=O)(=O)CC3)CC[C@]3(C)[C@H](CC[C@@H]4[C@@]5(C)CC=C(c6ccc(C(=O)O)cc6)C(C)(C)[C@@H]5CC[C@]43C)[C@@H]12 [Example 161, 4-((1R,3aS,5aR,5bR,7aR,11aS,11bR,13aR,13bR)-3a-((((2-(1,1-dioxido-4-thiomorpholinyl)ethyl)carbamoyl)amino)methyl)-1-isopropenyl-5a,5b,8,8,11a-pentamethyl-2,3,3a,4,5,5a,5b,6,7,7a,8,11,11a,11b,12,13,13a,13b-octadecahydro-1H-cyclopenta[a]chrysen-9-yl)benzoic acid] | < 100 nM
7 | C=C(C)[C@@H]1CC[C@]2(CNC(=O)OCCN3CCCC3=O)CC[C@]3(C)[C@H](CC[C@@H]4[C@@]5(C)CC=C(c6ccc(C(=O)O)cc6)C(C)(C)[C@@H]5CC[C@]43C)[C@@H]12 [Example 162, 4-((1R,3aS,5aR,5bR,7aR,11aS,11bR,13aR,13bR)-5a,5b,8,8,11a-pentamethyl-3a-(((2-(2-oxopyrrolidin-1-yl)ethoxy)carbonylamino)methyl)-1-(prop-1-en-2-yl)-2,3,3a,4,5,5a,5b,6,7,7a,8,11,11a,11b,12,13,13a,13b-octadecahydro-1H-cyclopenta[a]chrysen-9-yl)benzoic acid] | < 100 nM
8 | C=C(C)[C@@H]1CC[C@]2(CNC(=O)OCCN3CCNCC3)CC[C@]3(C)[C@H](CC[C@@H]4[C@@]5(C)CC=C(c6ccc(C(=O)O)cc6)C(C)(C)[C@@H]5CC[C@]43C)[C@@H]12 [Example 163, 4-((1R,3aS,5aR,5bR,7aR,11aS,11bR,13aR,13bR)-5a,5b,8,8,11a-pentamethyl-3a-(((2-(piperazin-1-yl)ethoxy)carbonylamino)methyl)-1-(prop-1-en-2-yl)-2,3,3a,4,5,5a,5b,6,7,7a,8,11,11a,11b,12,13,13a,13b-octadecahydro-1H-cyclopenta[a]chrysen-9-yl)benzoic acid] | < 100 nM

Same assay, conditions: NL43, MT-2 cells infected 4-5 days with NLRluc recombinant virus, numeric value

Row | SMILES | EC50
9 | C=C(C)[C@@H]1CC[C@]2(CNC(=O)NCC(=O)O)CC[C@]3(C)[C@H](CC[C@@H]4[C@@]5(C)CC=C(c6ccc(C(=O)O)cc6)C(C)(C)[C@@H]5CC[C@]43C)[C@@H]12 [Example 157, 4-((1R,3aS,5aR,5bR,7aR,11aS,11bR,13aR,13bR)-3a-((3-(carboxymethyl)ureido)methyl)-5a,5b,8,8,11a-pentamethyl-1-(prop-1-en-2-yl)-2,3,3a,4,5,5a,5b,6,7,7a,8,11,11a,11b,12,13,13a,13b-octadecahydro-1H-cyclopenta[a]chrysen-9-yl)benzoic acid] | 40 nM
10 | C=C(C)[C@@H]1CC[C@]2(CNC(=O)Nc3cccnc3)CC[C@]3(C)[C@H](CC[C@@H]4[C@@]5(C)CC=C(c6ccc(C(=O)O)cc6)C(C)(C)[C@@H]5CC[C@]43C)[C@@H]12 [Example 159, 4-((1R,3aS,5aR,5bR,7aR,11aS,11bR,13aR,13bR)-5a,5b,8,8,11a-pentamethyl-1-(prop-1-en-2-yl)-3a-((3-pyridin-3-ylureido)methyl)-2,3,3a,4,5,5a,5b,6,7,7a,8,11,11a,11b,12,13,13a,13b-octadecahydro-1H-cyclopenta[a]chrysen-9-yl)benzoic acid] | 10 nM
11 | C=C(C)[C@@H]1CC[C@]2(CNC(=O)Nc3ccc(C(=O)OC)cc3)CC[C@]3(C)[C@H](CC[C@@H]4[C@@]5(C)CC=C(c6ccc(C(=O)O)cc6)C(C)(C)[C@@H]5CC[C@]43C)[C@@H]12 [Example 160, 4-((1R,3aS,5aR,5bR,7aR,11aS,11bR,13aR,13bR)-3a-((3-(4-(methoxycarbonyl)phenyl)ureido)methyl)-5a,5b,8,8,11a-pentamethyl-1-(prop-1-en-2-yl)-2,3,3a,4,5,5a,5b,6,7,7a,8,11,11a,11b,12,13,13a,13b-octadecahydro-1H-cyclopenta[a]chrysen-9-yl)benzoic acid] | 260 nM
